# Patent publication US11607414B2, “Small molecule inhibitors of EGFR and PI3K” (The Regents of the University of Michigan, priority 2014, dated 2023)
# Assays:
# [1] = tested on: pAKT and pEGFR in HCT-116 cells; assay: Effect on pAKT and pEGFR in HCT-116 cells (Western blot); assay type: cell-based
# Protocol: [50 mmol/L Tris-HCl (pH 8.0), 150 mmol/L NaCl, 1% NP40, 0.5% Na-deoxycholate, 0.1% SDS, containing protease (P8340, Sigma, St. Louis, Mo.) and phosphatase (P5726, Sigma) inhibitor cocktails]. The soluble protein concentration was determined by micro-bovine serum albumin assay (Pierce, Rockford, Ill.). Protein immunodetection was done by electrophoretic transfer of SDS-PAGE separated proteins to nitrocellulose, incubation with antibody, and chemiluminescent second step detection (PicoWest, Pierce). The antibodies included EGFR, phospho-EGFR (Y1068), phospho-p42/p44, phospho-Akt (473), phospho-Akt (308), total Akt, phosho-S6 (235/236), and total S6. All antibodies were obtained from Cell Signaling Technologies (Danvers, Mass.). […]
# Cell extracts were prepared by detergent lysis [25 mmol/L Tris-HCl (pH 7.6), 150 mmol/L NaCl, 1% Nonidet P-40, 10% glycerol, 1 mM EDTA, 1 mmol/L dithiothreitol (DTT), and protease and phosphatase inhibitors, rocked for 30 minutes at 4° C., and centrifuged at 14,000 rpm for 20 min at 4° C. Protein concentration was determined by BioRad Protein Assays and lysates were subsequently subjected to SDS gel electrophoresis. […] After incubation with either anti-rabbit HRP or anti-mouse HRP linked secondary antibody (Jackson ImmunoResearch Laboratories, Inc.), proteins were detected using chemiluminescence (GE Healthcare).
# [2] = tested on: phosphorylation of AKT in HCT-116 tumors; assay: In vivo pharmacodynamics in subcutaneous HCT-116 tumors, pAKT; conditions: single oral dose 100 mg/kg, two hours post-dosing
# Excerpt: However, additional synthesis of MOL-162 is needed to allow a full pharmacodynamic time course study to be carried out to determine the maximal degree of target inhibition of both targets after single and repeated daily dosing.
# [3] = Solubility comparison; assay type: physicochemical
# [4] = target: EGFR (Homo sapiens, UniProt P00533); assay: Z'-LYTE biochemical kinase assay, EGFR
# Sequence of EGFR (P00533 25-1210): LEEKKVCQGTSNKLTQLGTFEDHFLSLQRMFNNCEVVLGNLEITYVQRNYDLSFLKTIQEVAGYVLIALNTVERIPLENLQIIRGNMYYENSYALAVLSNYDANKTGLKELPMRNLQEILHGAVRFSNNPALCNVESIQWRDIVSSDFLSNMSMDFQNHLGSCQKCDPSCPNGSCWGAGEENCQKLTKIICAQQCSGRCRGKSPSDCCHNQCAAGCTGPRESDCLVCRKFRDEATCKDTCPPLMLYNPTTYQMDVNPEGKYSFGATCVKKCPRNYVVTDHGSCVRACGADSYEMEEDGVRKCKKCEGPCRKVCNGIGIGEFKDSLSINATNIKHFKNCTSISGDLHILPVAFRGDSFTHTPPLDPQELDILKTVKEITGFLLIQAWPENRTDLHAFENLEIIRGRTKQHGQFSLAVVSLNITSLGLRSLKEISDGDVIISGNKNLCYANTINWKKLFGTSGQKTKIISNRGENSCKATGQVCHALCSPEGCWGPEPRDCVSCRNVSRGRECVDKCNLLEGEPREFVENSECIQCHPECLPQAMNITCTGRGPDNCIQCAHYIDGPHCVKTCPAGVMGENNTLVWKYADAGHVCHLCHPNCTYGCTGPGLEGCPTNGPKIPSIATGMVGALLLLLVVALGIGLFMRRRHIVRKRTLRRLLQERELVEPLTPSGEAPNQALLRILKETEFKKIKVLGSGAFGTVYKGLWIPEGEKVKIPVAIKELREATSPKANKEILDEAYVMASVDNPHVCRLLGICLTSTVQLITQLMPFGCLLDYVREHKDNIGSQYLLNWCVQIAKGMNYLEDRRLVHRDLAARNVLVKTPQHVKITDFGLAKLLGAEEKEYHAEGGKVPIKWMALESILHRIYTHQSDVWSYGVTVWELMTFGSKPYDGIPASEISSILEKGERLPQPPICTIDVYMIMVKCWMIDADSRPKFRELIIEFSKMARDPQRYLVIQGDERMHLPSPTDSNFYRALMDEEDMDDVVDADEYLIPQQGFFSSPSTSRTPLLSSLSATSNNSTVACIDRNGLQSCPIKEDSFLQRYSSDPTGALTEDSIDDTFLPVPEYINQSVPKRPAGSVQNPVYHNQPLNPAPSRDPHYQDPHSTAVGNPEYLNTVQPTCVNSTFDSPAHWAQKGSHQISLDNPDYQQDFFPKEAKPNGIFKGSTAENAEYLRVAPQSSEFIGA
# Protocol: Various compounds were tested for their ability to inhibit EGFR and PIK3CA. The assays determining inhibitions are given in Example 2 Assays-Z′-LYTE® and ADAPTA.
# Assays: The Z′-LYTE® biochemical assay employs a fluorescence-based, coupled-enzyme format and is based on the differential sensitivity of phosphorylated and non-phosphorylated peptides to proteolytic cleavage (FIG. 6). The peptide substrate is labeled with two fluorophores—one at each end— that make up a FRET pair. In the primary reaction, the kinase transfers the gamma-phosphate of ATP to a single tyrosine, serine or threonine residue in a synthetic FRET-peptide. […] A ratiometric method, which calculates the ratio (the Emission Ratio) of donor emission to acceptor emission after excitation of the donor fluorophore at 400 nm, is used to quantitate reaction progress.
# A significant benefit of this ratiometric method for quantitating reaction progress is the elimination of well-to-well variations in FRET-peptide concentration and signal intensities. […]
# Both cleaved and uncleaved FRET-peptides contribute to the fluorescence signals and therefore to the Emission Ratio. The extent of phosphorylation of the FRET-peptide can be calculated from the Emission Ratio. […]
# Bar-coded Corning, low volume NBS, black 384-well plate (Corning Cat. 4514) 1. […] Read on fluorescence plate reader and analyze the data.
smiles,measurement,setting,value
"CS(=O)(=O)Nc1cncc(-c2ccc3ncnc(Nc4cccc(Cl)c4)c3c2)c1 [MOL-162, N-(5-(4-((3-chlorophenyl)amino)quinazolin-6-yl)pyridin-3-yl)methanesulfonamide]",cellular modulation of EGFR and PI3K pathways,[1],cellular modulation of both pathways
same,phosphorylation of AKT in tumors,[2],not as strongly inhibited
same,solubility (comparison),[3],significantly more soluble than MOL-153
same,inhibition of / potency against purified EGFR (in words),[4],potent dual inhibition
